Laboratory results taken from US4221724A, “Antibiotic X-14766A” (Hoffmann-La Roche Inc., priority 1978, dated 1980).
Converted amounts (≈) assume the structure as drawn. “And” between values parts separate entries of the source, which are not always exact repeats. Identical values can stand only once.

Key:
[1] = test system: Treponema hyodysenteriae strain B140; assay: activity against Treponema hyodysenteriae, blood agar plate dilution MIC; type: cell-based; details: 48 hours, 42° C., anaerobic, in µg/mL
Text: (§1) Testing for activity against Treponema hyodysenteriae, a cause of swine dysentery consisted of inoculation of blood agar plates containing a series of two and fourfold dilutions of antibiotic X-14766A and ipronidazole, an agent used in the treatment of swine dysentery, with tenfold dilutions of each of the T. hyodysenteriae strains (H 78, H 140, H 179).

[2] = test system: Treponema hyodysenteriae strain B78; assay: as above; type: cell-based; details: 48 hours, 42° C., anaerobic, in µg/mL
Text: as §1

[3] = test system: Treponema hyodysenteriae strain B179; assay: as above; type: cell-based; details: Steers inoculation, 48 hours, 42° C., anaerobic, in µg/mL
Text: as §1

[4] = test system: rumen fluid (in vitro rumen fermentations); set-up: species or system bovine; details: for Percent Production of Control Fermantations: Rate of Gas Production / Percent Production of Control Fermantations: Total VFA(%): rumen fluid, 240 min
[5] = test system: Staphylococcus aureus ATCC 6538P; assay: antibacterial activity, Minimum Inhibitory Concentration (Table 4); type: cell-based; details: ATCC6538P
[6] = test system: Bacillus sp. TA ATCC 27860; assay: as above; type: cell-based; details: ATCC27860
[7] = test system: Clostridium histolyticum 503-86; assay: in vitro activity against anaerobic bacteria, two-fold serial broth dilution (Table 5); type: cell-based; details: Hathewaya histolytica, 50386, trypticase soy broth, 37° C. overnight, read-out: Minimum Inhibitory Concentration
Method: (§2) *Two-fold serial broth dilution tests were carried out using trypticase
(§3) soy broth (TSB, BBL) as the test medium. All tests were incubated at
(§4) 37° C. overnight under anaerobic conditions.

[8] = test system: Clostridium septicum 503-34; assay: as above; type: cell-based; details: 50334, trypticase soy broth, 37° C. overnight, read-out: Minimum Inhibitory Concentration
Method: as §2, §3, §4

[9] = test system: Bacillus megaterium ATCC 8011; assay: antibacterial activity, Minimum Inhibitory Concentration (Table 4); type: cell-based; details: Priestia megaterium, ATCC8011
[10] = test system: Bacillus sp. E ATCC 27859; assay: as above; type: cell-based; details: ATCC27859
Sarcina lutea ATCC 9341 = assay: as above; type: cell-based; details: Micrococcus luteus, ATCC9341
[11] = test system: Mycobacterium phlei ATCC 355; assay: as above; type: cell-based; details: Mycolicibacterium phlei, ATCC355
[12] = test system: Streptomyces cellulosae ATCC 3313; assay: as above; type: cell-based; details: ATCC3313
toxicity (LD50) in mice = details: mouse, in vivo
Plasmodium bergei = assay: antimalarial activity against Plasmodium bergei in mice; type: in vivo
[13] = test system: Bacillus subtilis Nrrl 558; assay: antibacterial activity, Minimum Inhibitory Concentration (Table 4); type: cell-based; details: NRRL558
[14] = test system: Bacteroides fragilis ATCC 12290; assay: in vitro activity against anaerobic bacteria, two-fold serial broth dilution (Table 5); type: cell-based; details: ATCC12290, trypticase soy broth, 37° C. overnight, read-out: Minimum Inhibitory Concentration

Structure (SMILES) | MIC ([1]; Steers inoculation) | MIC ([1]; Syringe inoculation) | MIC ([2]; Steers inoculation) | MIC ([2]; Syringe inoculation) | MIC [3] | C3 /C2 + nC4 [4] | Percent Production of Control Fermantations: Rate of Gas Production [4] | Percent Production of Control Fermantations: Total VFA(%) [4] | other results
CC(C)c1ncc([N+](=O)[O-])n1C [Ipronidazole, ipronidazole, reference compound] | 0.16 and 0.31 | 0.63 | 0.16 and 0.31 | 0.63 | 0.16 and 0.31 |  |  |  | 
CC[C@@]1([C@@H]2O[C@@H]([C@H]3O[C@@](O)(CO)[C@H](C)C[C@@H]3C)C[C@@H]2C)CC[C@H]([C@]2(C)CC[C@]3(C[C@H](O)[C@@H](C)[C@@H]([C@@H](C)[C@@H](OC)[C@H](C)C(=O)O)O3)O2)O1 [Monensin] |  |  |  |  |  | 0.565 and 0.575 | 89% and 85% | 105.3% and 110.7% | 
CC[C@@H](C(=O)O)[C@@H]1O[C@@H]([C@@H](C)[C@H](O)[C@H](C)C(=O)[C@H](CC)[C@H]2O[C@]3(C=C[C@@H](O)[C@]4(CC[C@@](C)([C@H]5CC[C@](O)(CC)[C@H](C)O5)O4)O3)[C@H](C)C[C@@H]2C)[C@@H](C)C[C@@H]1C [Narasin] |  |  |  |  |  | 00.583 and 0.581 | 86% and 88% |  | 
CCC(C(=O)O)C1CCC(C)C(C(C)C(O)C(C)C(=O)C(CC)C2OC3(C=CC(O)C4(CCC(C)(C5CCC(O)(CC)C(C)O5)O4)O3)C(C)CC2C)O1 (centres unmarked) [Salino] |  |  |  |  |  | 0.497 and 0.512 | 83% and 90% | 146.9% and 145.5% | 
CCOC(=O)C1OC(C2(C)OC3(OC4(C=CC3O)OC(C(C)C(=O)C(C)C(O)C(C)CC(C)c3c(Cl)cc(C)c(O)c3C(=O)O)C(C)CC4C)C(C)C2OC)CC1O (centres unmarked) [Antibiotic X-14766A] | < 0.04 and 0.04 | 0.02 and 0.04 | < 0.04 and 0.02 | 0.02 and 0.04 | < 0.04 and 0.02 | 0.501 and 0.488 | 90% and 89% | 150.1% and 138.7% | MIC [5]: 0.2 mg/L (≈ 0.238 µM); MIC [6]: 0.08 mg/L (≈ 0.0953 µM); MIC [7]: 0.0098 mg/L (≈ 0.0117 µM); MIC [8]: 0.0098 mg/L (≈ 0.0117 µM); MIC [9]: 0.08 mg/L (≈ 0.0953 µM); MIC [10]: 0.04 mg/L (≈ 0.0477 µM); MIC (Sarcina lutea ATCC 9341): 0.2 mg/L (≈ 0.238 µM); MIC [11]: 0.2 mg/L (≈ 0.238 µM); MIC [12]: 0.2 mg/L (≈ 0.238 µM); LD50 (toxicity (LD50) in mice; ip): 5.75 mg/kg; LD50 (toxicity (LD50) in mice; po): 350 mg/kg; ED50 (Plasmodium bergei): 2.5 mg/kg; MIC [13]: 0.2 mg/L (≈ 0.238 µM); MIC [14]: 0.195 mg/L (≈ 0.232 µM)
